The text below walks through data of US9428452B2, “Compounds” (Glaxo Group Limited, priority 2012, dated 2016).

Marks after values point to notes of the source that are not given here.

The target in experiment [1] is T1, Human RORγ Ligand Binding Domain (RORγ-LBD) (Homo sapiens, UniProt P51449).
T1 construct: His6 with thrombin site) (N); made in house; host or cells: E. coli BL21(DE3), modified pET21a vector
T1 sequence (P51449 263-518): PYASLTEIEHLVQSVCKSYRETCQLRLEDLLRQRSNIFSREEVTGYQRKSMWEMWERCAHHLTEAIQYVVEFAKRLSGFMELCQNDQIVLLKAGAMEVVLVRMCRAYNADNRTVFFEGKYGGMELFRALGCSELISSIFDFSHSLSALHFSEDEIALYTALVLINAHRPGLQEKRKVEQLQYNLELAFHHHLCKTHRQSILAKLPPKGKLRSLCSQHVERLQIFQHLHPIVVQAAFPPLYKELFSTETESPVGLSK
As to the kind of experiment: Dual Fluorescence Energy Transfer (FRET) assay: co-activator SRC1(2) peptide interaction with RORγ-LBD. The class given is biochemical. The following applies: RORγ-LBD / SRC1(2) peptide, read-out: mean pIC50 (converted). From the text:
Dual Fluorescence Energy Transfer (FRET) Assay
This assay is based on the knowledge that nuclear receptors interact with cofactors (transcription factors) in a ligand dependent manner. RORγ is a typical nuclear receptor in that it has an AF2 domain in the ligand binding domain (LBD) which interacts with co-activators.
This assay measures ligand-mediated interaction of the co-activator peptide with the purified bacterial-expressed RORγ ligand binding domain (RORγ-LBD) to indirectly assess ligand binding. RORγ has a basal level of interaction with the co-activator SRC1(2) in the absence of ligand, thus, it is possible to find ligands that inhibit or enhance the RORγ/SRC1(2) interaction.
Human RORγ Ligand Binding Domain (RORγ-LBD) was expressed in E. coli strain BL21(DE3) as an amino-terminal polyhistidine tagged fusion protein. DNA encoding this recombinant protein was sub-cloned into a modified pET21a expression vector (Novagen).
Approximately 50 g E. coli cell pellet was resuspended in 300 mL of lysis buffer (30 mM imidazole pH 7.0 and 150 mM NaCl). Cells were lysed by sonication and cell debris was removed by centrifugation for 30 minutes at 20,000 g at 4° C. […] The clarified lysate was loaded onto a column (XK-26) packed with ProBond Nickel Chelating resin (InVitrogen), pre-equilibrated with 30 mM imidazole pH 7.0 and 150 mM NaCl. After washing to baseline absorbance with the equilibration buffer, the column was developed with a gradient from 30 to 500 mM imidazole pH 7.0. Column fractions containing the RORγ-LBD protein were pooled and concentrated to a volume of 5 mLs. The concentrated protein was loaded onto a Superdex 200 column pre-equilibrated with 20 mM Tris-Cl pH 7.2 and 200 mM NaCl. The fractions containing the desired RORγ-LBD protein were pooled together.
Purified RORγ-LBD was buffer exchanged by exhaustive dialysis [3 changes of at least 20 volumes (>8000×)] against PBS [100 mM NaPhosphate, pH 8 and 150 mM NaCl]. […] The modified RORγ-LBD was dialyzed against 2 buffer changes—TBS pH 8.0 containing 5 mM DTT, 2 mM EDTA and 2% sucrose—each at least 20 times of the volume. The modified protein was distributed into aliquots, frozen on dry ice and stored at −80° C. The biotinylated RORγ-LBD was subjected to mass spectrometric analysis to reveal the extent of modification by the biotinylation reagent.
Biotinylated SRC1(2) solution was prepared by adding an appropriate amount of biotinylated SRC1(2) from the 100 uM stock solution to a buffer containing 10 mM of freshly added DTT from solid to give a final concentration of 40 nM. An appropriate amount of Europium labeled Streptavidin was then added to the biotinylated SRC1(2) solution in a tube to give a final concentration of 10 nM. The tube was inverted gently and incubated for 15 minutes at room temperature. Twenty-fold excess biotin from the 10 mM stock solution was added and the tube was inverted gently and incubated for 10 minutes at room temperature.
Biotinylated RORγ-LBD solution was prepared by adding an appropriate amount of biotinylated RORγ-LBD from the stock solution to a buffer containing 10 mM of freshly added DTT from solid to give a final concentration of 40 nM. An appropriate amount of APC labeled Streptavidin was then added to the biotinylated RORγ-LBD solution in a tube to give a final concentration of 20 nM. The tube was inverted gently and incubated for 15 minutes at room temperature. Twenty-fold excess biotin from the 10 mM stock solution was then added and the tube was inverted gently and incubated for 10 minutes at room temperature.
The reaction mixtures were incubated for 5 minutes. […] The plates were incubated for 1 hour and then read on ViewLux in Lance mode for EU/APC.

Experiment [2] deals with IL-17A mRNA expression. The experiment can be described thus: Ex-vivo human skin model, IL-17A mRNA expression. The experiment is classed as cell-based. The following applies: for Percentage of inhibition of IL-17A mRNA expression: Th17 cytokine cocktail 24 h, RT-PCR. As for the experimental part: (§1) Fresh ex vivo human skin from healthy bariatric patients, that underwent abdominoplasty skin removal, was de-fatted and dermatomed at 750 μm. Dermatomed skin was incubated twice for 5-10 minutes at room temperature in PBS containing a antibiotic/antimycotic solution: Fungizone (Invitrogen #15290018), PSG (Fisher #BW17718R) and Gentamicin (Invitrogen #15750060). Skin was treated aseptically from this point on. Individual skin samples were obtained by 10 mm punch biopsy and placed in a 0.4 μm PCF membrane transwell (Millicell #PIHP01250) containing 30 μl of a 64% bovine collagen solution. After a 30 minute incubation at 37° C., which allows the collagen solution time to set, skin samples on transwells were transferred to 6-well plates (1 sample per well) and the lower chamber filled with 1 ml complete media (Cornification Media)+hydrocortisone (final concentration of 0.4 μg/ml) with or without test compounds at 10 μM (day −3) and allowed to rest overnight (16-18 h) at 37° C. Next, media was aspirated from the lower chamber, replaced with 1 ml complete media without hydrocortisone and incubated at 37° C. for 1 h. This constituted a ‘wash’ step. Following the hydrocortisone washout, media was again aspirated from the lower chamber and replaced with 1.0 ml complete media without hydrocortisone with or without GSK compounds at 10 μM (day −2). Cultures were incubated at 37° C. in a humidified chamber and media was refreshed one more day (day-1). The following day (day-0), cultures were stimulated for 24 h with a freshly made Th17 cytokine cocktail (CD3, 1 μg/ml, CD28, 2 μg/ml, IL-1b, 10 ng/ml, IL-6, 5 ng/ml, TGFb, 1 ng/ml, IL-21, 10 ng/ml, anti-IL-4, 1 μg/ml and anti-INFg, 1 μg/ml) with or without test compounds at 10 μM. Upon harvest (day +1), skin samples were minced with a razor blade and transferred to 1.5 ml RNAse-free tubes with 1 ml RNAlater solution until later analysis by RT-PCR (stored at −80 C).
(§2) Total RNA was isolated from about 30-40 mg of tissue using Qiagen's (Cat #74106) Mini RNA Isolation kit. Briefly, tissue was homogenized in the Precellys-24 machine using 300 μL of RLT buffer supplemented with 1% 2-Beta-Mercapto-Ethanol at 6300 rpm for 30 seconds for 6 cycles with a 2-minute ice break. 600 μL of water containing Proteinase K was added to the homogenate and digested at 55 C for 15 minutes. Digested tissue was spun down for 3 minutes at 10,000×g and the supernantant was used for RNA isolation using Qiagen's RNeasy mini columns according to manufacturer's protocol. 100 ng of RNA was used as template in a 20 μL PCR volume using Applied Biosciences RNA-to-CT 1 Step kit (AB Catalog #4392938) as well as the specific TaqMan probe for each gene to be quantified. Life Technologies FAM labeled Probes Catalog Numbers are as follows: ACTb=Hs01060665_g1, IL-17A=Hs00174383_m1, IL-17F=Hs00369400_m1, IL-22=Hs01574154_m1. All probes used (except for ACTb) expand an Exon. Applied Biosciences' Master Mix has a ROX dye internal control. OneStepPlus PCR machine was used for both the RT step and the 40 amplification cycles. RNA levels of gene of interest's relative expression were calculated using the Delta Delta CT formula.
(§3) First delta: Normalized to ACTb gene expression
(§4) Second delta: Normalized to sample 13 (Day 0+DMSO) for the gene of interest.

The test system of experiment [3] is IL-17F mRNA expression. The experiment can be described thus: Ex-vivo human skin model, IL-17F mRNA expression. The class given is cell-based. The following applies: for Percentage of inhibition of IL-17F mRNA expression: Th17 cytokine cocktail 24 h, RT-PCR. As for the experimental part: as §1, §2, §3, §4
Experiment [4] has as its system IL-22 mRNA expression. The experiment can be described thus: Ex-vivo human skin model, IL-22 mRNA expression. The experiment is classed as cell-based. The conditions noted are these: for Percentage of inhibition of IL-22 mRNA expression: Th17 cytokine cocktail 24 h, RT-PCR. As for the experimental part: as §1, §2, §3, §4
Where [5] appears, read: four different donors, compound 10 μM.

With `CCc1ccc(N(CC(C)C)S(=O)(=O)c2ccc([C@H](O)CN3CCOCC3)c(CO)c2)cc1` [Example E125, N-(4-ethylphenyl)-4-(1-hydroxy-2-morpholinoethyl)-3-(hydroxymethyl)-N-isobutylbenzenesulfonamide], the IC50 in experiment [1] was 0.0316 µM. For the same compound, the “Percentage of inhibition of IL-17A mRNA expression” value is 65% * in experiment [2] (Skin Donor 1, compound 10 μM); 92% * in experiment [2] (Skin Donor 2, compound 10 μM); 65% * in experiment [2] (Skin Donor 3, compound 10 μM); 93% * in experiment [2] (Skin Donor 4, compound 10 μM). Besides, in experiment [2] (setting [5]), the “gene transcription of il17a (result in words)” value is given as “inhibited”. Also, the “Percentage of inhibition of IL-17F mRNA expression” value in experiment [3] (Skin Donor 1, compound 10 μM) was found to be 39%; in experiment [3] (Skin Donor 2, compound 10 μM) it was 89% *; in experiment [3] (Skin Donor 3, compound 10 μM) it was 45%; in experiment [3] (Skin Donor 4, compound 10 μM) it was 80% *. The “gene transcription of il17f (result in words)” value in experiment [3] (setting [5]) is reported as “inhibited”. The “Percentage of inhibition of IL-22 mRNA expression” value in experiment [4] (Skin Donor 1, compound 10 μM) is given as 52% *; in experiment [4] (Skin Donor 2, compound 10 μM), 52%; in experiment [4] (Skin Donor 3, compound 10 μM) it was 20%; in experiment [4] (Skin Donor 4, compound 10 μM), 70% *. In addition, in experiment [4] (setting [5]), the “gene transcription of il22 (result in words)” value is “inhibited”.
